The values that follow come from patent US5939428A, “Alkyl N-[3-(acridin-9-yl)amino-5-hydroxymethyl] phenylcarbamates” (National Health Research Institutes, priority 1998, dated 1999).

For data set [1] the following is noted: longer than m-AMSA; cited from earlier work.
Data set [2] concerns leukemia and several solid tumors. Particulars: against growth of leukemia and several solid tumors, in vitro and in vivo; cited from earlier work.
Data set [3] concerns murine leukemia and solid tumors (a mammary adenocarcinoma, B-16 melanoma and Lewis lung carcinoma). The settings on record: cited from earlier work.
The test system of the next data set is HL-60 cells. The data set is described as follows: in vitro cytotoxicity against growth of human leukemic HL-60 cells. The format is cell-based. The settings on record: read-out: IC50 for cell growth inhibition, HL-60. How it is done:
(§1) The in vitro cytotoxicity of the N-[3-(acridin-9-yl)amino-5-hydroxymethyl]phenylcarbamate derivatives of the invention against growth of human leukemic HL-60 cells and 833K tumor cells, and the chemotherapeutic effects of ethyl N-[3-(acridin-9-yl)amino-5-hydroxymethyl]phenylcarbamate on Sarcoma 180 and Lewis lung carcinoma tumor bearing B6 D2 F1 mice were evaluated. The compound 3-(acridin-9-yl)amino-5-hydroxymethylaniline (AHMA) was also evaluated for comparison.
(§2) The in vitro cytotoxicity against growth of human
(§3) leukemic HL-60 cells and 833K tumor cells.

The test system of the next data set is 833K tumor cells. As to the kind of experiment: in vitro cytotoxicity against growth of 833K tumor cells. The format is cell-based. The settings on record: Homo sapiens, read-out: IC50 for cell growth inhibition, 833K. As for the experimental part: as §1, §2, §3
Another data set relates to Sarcoma 180. The data set is described as follows: chemotherapeutic effect on Sarcoma 180 tumor bearing B6 D2 F1 mice. The format is in vivo. The settings on record: for Average Tumor Volume (T/C), Day 7 / Average Weight Change, Day 7: QD × 5, day 7.
The subject of another data set is Lewis lung carcinoma. The data set is described as follows: chemotherapeutic effect on Lewis lung carcinoma tumor bearing B6 D2 F1 mice. The format is in vivo. The settings on record: for Average Weight Change, Day 7 / Average Weight Change, Day 10: mouse, in vivo, ip. How it is done:
as §1
The chemotherapeutic effects on Sarcoma 180 and
Lewis lung carcinoma tumor bearing B6 D2 F1 mice.^a […]
carcinoma (4 × […] cells) inoculated s.c. on day (-2).
Treatment started on day 1, i.p., QD × 5. Control had 4 mice and
each dose had 3 mice. Tumor sizes were evaluated on day 7 and day 10.

The conditions of data set [4]: mouse, in vivo; cited from earlier work.
The conditions of data set [5]: mouse and rat; GSH conjugates; cited from earlier work.
For data set [6] the following is noted: 37° C.; cited from earlier work.
The mark [7] stands for this setting: Lewis lung carcinoma, 3.0 mg/kg i.p., QD × 5.
The mark [8] stands for this setting: Lewis lung carcinoma, 6.0 mg/kg i.p., QD × 5.

Description for Sarcoma 180: Sarcoma 180 (3 × 10^6 cells) innoculated subcutaneously
(s.c.) on day 0. Treatment started on day 1, peritoneal injection (i.p.),

Usually IC50 stands for the concentration needed to halve the response being measured. For `Nc1cc(CO)cc(Nc2c3ccccc3nc3ccccc23)c1` [compound 1, 3-(acridin-9-yl)amino-5-hydroxymethylaniline], the plasma half-life in data set [1] is listed as 1.5 h. Also, the antitumor activity result in [2] is “potent antitumor activity against growth of leukemia and several solid tumors both in vitro and in vivo with long half-life”. The “toxicity toward the host compared with m-AMSA and VP-16” value in data set [3] (mouse, in vivo) is reported as “less toxic toward the host”. Besides, the “antitumor efficacy compared with m-AMSA and VP-16” value in [3] (murine leukemia and solid tumors) was “greater efficacy against murine leukemia and solid tumors (a mammary adenocarcinoma, B-16 melanoma and Lewis lung carcinoma) than m-AMSA and VP-16”. Also, the 50% inhibitory concentration (IC50) in the data set on HL-60 cells came to 0.025 µM.
With `CCOC(=O)Nc1cc(CO)cc(Nc2c3cccc(C)c3nc3c(C(=O)NC)cccc23)c1` [compound 5, ethyl N-[3-(4-methylaminocarbonyl-5-methylacridin-9-yl)amino-5-hydroxymethyl]phenylcarbamate], the IC50 was determined as 0.083 µM in the data set with HL-60 cells and 0.034 µM in the data set on 833K tumor cells.
`CNC(=O)c1cccc2c(Nc3cc(N)cc(CO)c3)c3cccc(C)c3nc12` [compound 4, 3-(5-methyl-4-methylamino-carbonylacridin-9-yl)amino-5-hydroxymethylaniline]: the IC50 in the data set with HL-60 cells came out at 0.144 µM; with 833K tumor cells, 0.244 µM.
Take `CCOC(=O)Nc1cc(CO)cc(Nc2c3ccccc3nc3ccccc23)c1` [compound 2, ethyl N-[3-(acridin-9-yl)amino-5-hydroxymethyl]phenylcarbamate]: the “Average Tumor Volume (T/C), Day 7” value with Sarcoma 180 (3.0 mg/kg i.p.) is listed as 1.24; with Sarcoma 180 (5.0 mg/kg i.p.), 0.06; with Sarcoma 180 (7.0 mg/kg i.p.), 0.22; in the data set on Lewis lung carcinoma (setting [7]) it was 0.8; in the data set with Lewis lung carcinoma (setting [8]) it was 0.44; in the data set on Lewis lung carcinoma (Lewis lung carcinoma, 8.0 mg/kg i.p., QD × 5), 0.21. In addition, the “Average Weight Change, Day 7” value is -2.0 gm with Sarcoma 180 (3.0 mg/kg i.p.); -2.6 gm in the data set with Sarcoma 180 (5.0 mg/kg i.p.); -3.4 gm with Sarcoma 180 (7.0 mg/kg i.p.); -2.3 gm in the data set with Lewis lung carcinoma (3 mg/kg); -3 gm in the data set with Lewis lung carcinoma (6 mg/kg); -3.6 gm in the data set with Lewis lung carcinoma (8 mg/kg). The “Average Tumor Volume (T/C), Day 10” value in the data set on Sarcoma 180 (3.0 mg/kg i.p., QD × 5, day 10) was 1.21; with Sarcoma 180 (5.0 mg/kg i.p., QD × 5, day 10), 0.63; in the data set with Sarcoma 180 (7.0 mg/kg i.p., QD × 5, day 10), under 0.01; with Lewis lung carcinoma (setting [7]), 0.63; in the data set on Lewis lung carcinoma (setting [8]) it was 0.37. The “Average Weight Change, Day 10” value with Sarcoma 180 (3.0 mg/kg i.p., QD × 5, day 10) is given as -0.7 gm; in the data set with Sarcoma 180 (5.0 mg/kg i.p., QD × 5, day 10), “+1.0 gm”; with Sarcoma 180 (7.0 mg/kg i.p., QD × 5, day 10) it was -0.1 gm; in the data set with Lewis lung carcinoma (3 mg/kg) it was -1.3 gm; in the data set with Lewis lung carcinoma (6 mg/kg), -2.6 gm. The “Tumor detectability (footnote b)” value in the data set on Sarcoma 180 (7.0 mg/kg i.p., QD × 5, day 10) is on record as “Tumor not detectable”. For the same compound, the half-inhibitory concentration (IC50) with HL-60 cells was found to be 0.016 µM; in the data set with 833K tumor cells, 0.02 µM. Also, the “Mortality (footnote c)” value in the data set with Lewis lung carcinoma (Lewis lung carcinoma, 8.0 mg/kg i.p., QD × 5, 3 mice) is “One mouse died on day 8 and two mice died on day 9”.
On to `CNC(=O)c1cccc2c(Nc3ccc(NS(C)(=O)=O)cc3OC)c3cccc(C)c3nc12` [CI-921], for which the “metabolites detected in addition to the 5'- and 6'-GSH conjugates” value in [4] is “two other metabolites, namely C9-GSH and the 4-hydroxymethyl derivatives of CI-921, were detected”.
Regarding `CC(C)COC(=O)Nc1cc(CO)cc(Nc2c3ccccc3nc3ccccc23)c1` [compound 3, i-butyl N-[3-(acridin-9-yl)amino-5-hydroxymethyl]phenylcarbamate], the IC50 in the data set on HL-60 cells came to 0.018 µM; with 833K tumor cells it was 0.021 µM.
Turning to `COc1cc(NS(C)(=O)=O)ccc1Nc1c2ccccc2nc2ccccc12` [m-AMSA, 4'-(9-acridinylamino)methanesulfon-m-anisidine], the major biliary metabolites result in data set [5] was “the major biliary metabolites of this agent were the 5'- and 6'-glutathione (GSH) conjugates, with no C9-GSH conjugate being found”. Further, in [6], the “half-life in the presence of fresh mouse blood” value is reported as “ca. 30 min”. Moreover, in data set [4], the “dose excreted as the glutathione conjugate in the bile” value is on record as “More than 50%”.
